Test results reported in ChEMBL document CHEMBL2034964, “Investigation of the binding pocket of human hematopoietic prostaglandin (PG) D2 synthase (hH-PGDS): a tale of two waters” (Bioorg Med Chem Lett, 2012).

Key:
[1] = molecular target: T1, Hematopoietic prostaglandin D synthase (Homo sapiens, UniProt O60760); assay: Inhibition of HPGDS
[2] = (§1) Metabolic stability in human liver microsomes assessed as compound remaining after 30 mins; assay type: ADME, Microsome; settings: liver microsomes, read-out: Stability
[3] = molecular target: T1, Hematopoietic prostaglandin D synthase; assay: Inhibition of human recombinant HPGDS using PGH2 as substrate assessed as production of PGD2 preincubated for 10 mins prior substrate addition measured after 42 secs by TBA-based fluorescence assay
[4] = system: Liver microsomes; assay: Half life in human liver microsomes; assay type: ADME, Microsome
[5] = system: Liver microsomes; assay: as §1; assay type: ADME, Microsome; settings: microsomes, 0.5 h
[6] = molecular target: ERG (KCNH2 potassium channel) (Homo sapiens, UniProt Q12809); assay: Displacement of dofetilide from ERG at 10 uM; settings: probe dofetilide
Sequence of ERG (KCNH2 potassium channel) (Q12809 whole entry): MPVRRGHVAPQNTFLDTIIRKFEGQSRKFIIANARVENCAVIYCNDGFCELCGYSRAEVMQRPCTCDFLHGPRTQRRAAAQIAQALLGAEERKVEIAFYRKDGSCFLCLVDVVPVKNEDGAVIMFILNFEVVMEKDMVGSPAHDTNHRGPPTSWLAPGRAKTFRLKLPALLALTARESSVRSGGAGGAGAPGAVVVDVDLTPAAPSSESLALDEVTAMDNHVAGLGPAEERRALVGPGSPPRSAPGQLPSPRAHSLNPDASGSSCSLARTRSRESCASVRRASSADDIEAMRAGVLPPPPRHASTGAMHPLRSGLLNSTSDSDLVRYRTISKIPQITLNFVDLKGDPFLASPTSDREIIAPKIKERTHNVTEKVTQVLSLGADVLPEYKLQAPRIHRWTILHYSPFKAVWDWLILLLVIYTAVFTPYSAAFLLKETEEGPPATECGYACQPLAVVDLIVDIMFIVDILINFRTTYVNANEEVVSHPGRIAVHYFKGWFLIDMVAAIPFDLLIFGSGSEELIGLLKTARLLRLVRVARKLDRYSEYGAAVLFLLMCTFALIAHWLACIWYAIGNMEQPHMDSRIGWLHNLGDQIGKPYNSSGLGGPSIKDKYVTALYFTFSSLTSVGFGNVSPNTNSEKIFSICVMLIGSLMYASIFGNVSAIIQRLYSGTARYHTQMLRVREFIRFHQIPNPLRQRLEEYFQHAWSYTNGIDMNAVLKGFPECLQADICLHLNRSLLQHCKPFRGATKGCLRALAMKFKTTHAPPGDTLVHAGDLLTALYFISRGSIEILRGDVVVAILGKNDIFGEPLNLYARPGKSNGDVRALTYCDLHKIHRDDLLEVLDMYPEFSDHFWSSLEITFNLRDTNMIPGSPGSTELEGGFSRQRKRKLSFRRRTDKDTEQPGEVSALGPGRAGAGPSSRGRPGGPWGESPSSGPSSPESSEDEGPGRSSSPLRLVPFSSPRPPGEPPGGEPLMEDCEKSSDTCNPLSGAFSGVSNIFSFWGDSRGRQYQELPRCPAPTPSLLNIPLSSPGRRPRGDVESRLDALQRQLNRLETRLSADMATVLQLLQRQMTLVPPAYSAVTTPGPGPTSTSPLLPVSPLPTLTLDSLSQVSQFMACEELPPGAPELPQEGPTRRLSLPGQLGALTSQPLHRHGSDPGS

T1 sequence (O60760 whole entry): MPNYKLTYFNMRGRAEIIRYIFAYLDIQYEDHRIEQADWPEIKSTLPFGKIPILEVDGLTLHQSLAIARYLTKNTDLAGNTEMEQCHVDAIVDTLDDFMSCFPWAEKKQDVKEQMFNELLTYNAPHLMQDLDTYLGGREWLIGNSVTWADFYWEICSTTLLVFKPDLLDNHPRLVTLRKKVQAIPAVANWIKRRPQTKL

| IC50 [1] [nM] | remaining at 0.5 h [2] [%] | Structure (SMILES) | also measured |
| --- | --- | --- | --- |
| – | 20 | O=C(NCCN1CCOCC1)c1ccc(-c2ccccn2)cc1 | IC50 [3]: 274 nM |
| – | 76 | Cc1cc2ccccc2c(-c2ccc(C(=O)NCCN3CCOCC3)cc2)n1 | – |

Continued, compound first:

| Structure (SMILES) | IC50 [1] [nM] | remaining at 0.5 h [2] [%] | also measured |
| --- | --- | --- | --- |
| O=C(Nc1ccc(N2CCN(C(=O)N3CCOCC3)CC2)cc1)c1cnc(Oc2ccccc2)nc1 | 280 | – | – |
| COc1ccccc1N1CCN(C(=O)c2ccc[nH]2)CC1 | 6900 | – | – |
| O=C(NCCN1CCOCC1)c1ccc(-c2c(O)ccc3ccccc23)cc1 | – | 94 | IC50 [3]: 662 nM |
| O=C(NCCN1CCOCC1)c1ccc(-c2nccc3ccccc23)cc1 | – | – | t1/2 [4]: 1 h; Stability [5]: 90%; inhibition at 10 µM [6]: 3% |
| O=C(NC1CCN(CC(F)(F)F)CC1)c1ccc(-c2ccccc2)nc1 | 0.2 | – | – |
| Cc1nc(-c2ccccc2)sc1C(=O)Nc1ccc(S(N)(=O)=O)cc1 | < 1 | – | – |
